In patent US7625870B2, “Peptide substance restoring respiratory organs function” (“Access Bioscience” CJSC, priority 2004, dated 2009):
Marks after values point to notes of the source that are not given here. Peptide text beside a SMILES is read from it.

Key:
[1] = test system: acute bacterial lung injury (Staphilococcus aureus 209) in rats; assay: Acute inflammation model, bacterial lung injury in rats (BALF cytogram, AM phagocytic activity); type: in vivo, rat
Protocol: The study was conducted on 120 white mongrel rats with average body weight 200-230 g. The animals were divided at random into 3 groups: 10 (intact), 60 (control) and 50 (experimental). In order to infect the animals there was used twenty-four-hours' culture of Staphilococcus aureus 209, which is tropic to rodents pulmonic tissue. There was also used a cellular suspension 5×10^6 cl/ml with Freind adjuvant (25% of total volume). Before infecting the animals were exposed to a supercooling at temperature −20° C. for 1 hour. Then the animals were infected using light thiopental narcosis (8 mg/100g of body weight) in sterile box. Injections of tetrapeptide were started in 2 days after infecting and were conducted for 7 days (daily, intraperitoneally in dose of 0,2 μg/kg). Control animals were administered with 0.9% NaCl solution. The animals were excluded from the trial on the 1, 3, 6, 10, […] and 20th days by the method of cervical dislocation. In each period there was conducted BAFL testing in order to estimate its cellular content and AM phagocytic activity, superoxid-anion (SA) production and total free radical production by BAFL cells. On the 1 and the 6th days of the study there was conducted lung morphological examination.

[2] = test system: bleomycine lung fibrosis in rats; assay: Chronic fibrosing inflammatory process (bleomycine lung fibrosis) in rats; type: in vivo, rat; details: for Body weight / Relative lungs weight / Ventricular index, right ven./left ven. × 100%: 0,2 μg/kg intraperitoneally; for Blood large CIC / Blood medium CIC: blood serum
Protocol: The experiment was carried out on 120 white mongrel rats weighing 130-160 g. The animals were divided at random into 3 groups, 40 animals in each. Then the animals were subjected to a thrice-repeated intratracheal administration of bleomycine solution (at a rate of 10.0 mg per kg of body weight) with 2 weeks interval. The tetrapeptide was administered intraperitoneally in the dose of […] of body weight in sterile 0,9% NaCl solution in the course of 7 days beginning from the 5h day after each bleomycine installation.
10 animals of each group were excluded from the experiment by the method of cervical dislocation on the 15, 30, 45 and 60 days after experiment onset.
In each period there was conducted broncho-alveolar lavage fluid (BALF) test in order to estimate its cellular content, and alveolar macrophages phagocytic activity, production of superoxide-anion and total free radical production by BALF cells. In the blood and BALF there were estimated the number of circulating immune complexes (CIC). After the last bleomycin administration there was conducted lung examination.

[3] = test system: sublethal hyperoxic lung injury in rats; assay: Sublethal hyperoxic lung injury in rats; type: in vivo, rat
Protocol: The experiment was conducted on 96 white mongrel rats weighing 200-230 g. The animals were divided into three groups: 8 intact animals, 48 control and 40 experimental animals. The animals were exposed to oxygenation by 100% oxygen during 60 hours in the running mode by normal pressure in chamber with oxygen expenditure, providing 8-10 full changes of the gas medium in one hour. Tetrapeptide administration was set out on the 3rd day of being in the normal atmosphere. Experimental animals were administered with the tetrapeptide (intraperitoneal administration in the dose of 0,2 μg/kg of body weight, dissolved in 0.9% sodium chloride solution (natural saline), 10 injections, every other day). […] There were conducted biometrical studies, estimation of BALF cytogram and AM phagocytic activity. BALF cellular content was estimated by coloring of the precipitated cells on the glass following the Leishman-Romanowsky method.

[4] = test system: lung tissue explants of mature Wistar rats; assay: Growth of lung organotypical culture explants; type: cell-based, rat; details: for SI, % compared to the control: 3 days of incubation
Protocol: Lung tissue explants of mature Wistar rats were cultivated in petri dishes with collagen bottom cover. The nutritious medium was composed of 35% Eagle's medium, 35% Hanx solution, 25% calf fetal serum and 5% of chicken embryonic extract with added glucose, insulin, gentamycin and glutamin. Ala-Glu-Asp-Leu (SEQ ID NO:1) tetrapeptide was added into the cultural medium in fixed concentrations, from 0,01 to 20,0 ng per ml of nutritious medium. The same amount of natural saline solution was added to the control explants. After 3 days of incubation at the temperature of 37° C. there was assessed an extension of explants' area using phase contrast microscope. Biological activity of the preparation was evaluated by the change of square index (SI) of the explants cultivated in the medium containing the peptide, compared to the control.

white mongrel male mice = assay: Acute toxicity, single intramuscular injection; type: in vivo, mouse; details: dose exceeding the therapeutic one 5000 times
Description: (§1) The general toxic effect of tetrapeptide was studied in compliance with “The manual of Experimental (Pre-Clinical) Study of New Pharmacological Substances” (2000): acute toxicity was studied in conditions of tetrapeptide single administration, subacute and chronic toxicity were investigated in conditions of long tetrapeptide administration.
Acute toxicity was investigated on 60 white mongrel male mice weighing 20-23 g. The animals were randomized to 6 equal groups. They were intramuscularly injected with the tetrapeptide once in the doses of 1 mg/kg, 2 mg/kg, 3 mg/kg, 4 mg/kg, 5 mg/kg in 0.25 ml of natural saline solution. The control animals received the same amount of natural saline solution (0.9%).

white mongrel male rats = assay: Subacute toxicity, 90 days intramuscular; type: in vivo, rat; details: long term administration, doses 100-1000 times exceeding the therapeutic one
Description: as §1
Subacute toxicity of the tetrapeptide was investigated on 60 white mongrel male rats weighing 150-250g. The animals of the experimental groups were exposed to intramuscular injection of the tetrapeptide in the doses of 1 μg/kg, 0,1 mg/kg, 1 mg/kg in 0,5 ml of natural saline solution, once a day for 90 days. The animals of the control group were administered with natural saline solution in the same amount. Before the onset of tetrapeptide administration in the 30th, 60th and 90th day the animals were exposed to an examination of the morphological composition and characteristics of the peripheral blood. On the completion of the experiment there were studied biochemical and coagulological blood indices.

male guinea-pigs = details: guinea pig, in vivo
Description: as §1
The tetrapeptide was investigated for chronic toxicity for 6 months, taking into consideration the recommended period of administration, on 100 male guinea-pigs weighing 300-350 g. The animals of the experimental groups were intramuscularly injected with the tetrapeptide in the doses 1 μg/kg, 0,1 mg/kg, 1 mg/kg in 0,5 ml of natural saline solution, once a day for 6 months. The animals of the control group were administered with natural saline solution in the same amount.
These animals were exposed to the assessment of the amount of erythrocytes, hemoglobin, reticulocytes, thrombocytes, leucocytes, leukocytic formula, speed of erythrocytes sedimentation (SES), erythrocytes resistance in peripheral blood. Together with this there was measured the total protein content in the blood serum according to the method of Lowry, potassium and sodium content were measured according to the method of plasma spectrophotometry. On completion of the experiment the animals were subjected to a pathomorphological examination to assess the state of brain and spinal marrow, cerebrospinal ganglia, thyroid gland, adrenal glands, testes, pituitary body, heart, lungs, aorta, liver, kidneys, urinary bladder, pancreas, stomach, small intestine, large intestine, thymus, spleen, lymph nodes, bone marrow.

[5] = day 3, 0,2 μg/kg intraperitoneally
[6] = day 6, 0,2 μg/kg intraperitoneally
[7] = day 10, 0,2 μg/kg intraperitoneally
[8] = day 15, 0,2 μg/kg intraperitoneally
[9] = day 20, 0,2 μg/kg intraperitoneally
[10] = in words, 0,2 μg/kg intraperitoneally

CC(C)C[C@H](NC(=O)[C@H](CC(=O)O)NC(=O)[C@H](CCC(=O)O)NC(=O)[C@H](C)N)C(=O)O [Tetrapeptide, L-alanyl-L-glutamyl-L-aspartyl-L-leucine] (H-AEDL-OH)
BAFL cytogram, Lymphocytes [1, 5]: 1.68 ± 0.16 ×10^6 cells/lungs | BAFL cytogram, Macrophages [1, 5]: 29.7 ± 2.8*+ ×10^6 cells/lungs | BAFL cytogram, Neutrophiles [1, 5]: 6.98 ± 1.48*+ ×10^6 cells/lungs | Phagocytic index (alveolar macrophages) [1, 5]: 52.4 ± 2.9*+ | Phagocytic number (alveolar macrophages) [1, 5]: 5.83 ± 0.37*+ | BAFL cytogram, Lymphocytes [1, 6]: 0.86 ± 0.23 ×10^6 cells/lungs | BAFL cytogram, Macrophages [1, 6]: 24.9 ± 1.2*+ ×10^6 cells/lungs | BAFL cytogram, Neutrophiles [1, 6]: 0.52 ± 0.18 ×10^6 cells/lungs | Phagocytic index (alveolar macrophages) [1, 6]: 41.5 ± 3.1+ | Phagocytic number (alveolar macrophages) [1, 6]: 4.98 ± 0.28*+ | BAFL cytogram, Lymphocytes [1, 7]: 0.59 ± 0.28 ×10^6 cells/lungs | BAFL cytogram, Macrophages [1, 7]: 19.2 ± 2.8*+ ×10^6 cells/lungs | BAFL cytogram, Neutrophiles [1, 7]: 0.31 ± 0.18 ×10^6 cells/lungs | Phagocytic index (alveolar macrophages) [1, 7]: 49.2 ± 2.8+ | Phagocytic number (alveolar macrophages) [1, 7]: 2.98 ± 0.32+ | BAFL cytogram, Lymphocytes [1, 8]: 0.79 ± 0.20 ×10^6 cells/lungs | BAFL cytogram, Macrophages [1, 8]: 16.3 ± 2.8 ×10^6 cells/lungs | BAFL cytogram, Neutrophiles [1, 8]: 0.21 ± 0.16 ×10^6 cells/lungs | Phagocytic index (alveolar macrophages) [1, 8]: 55.9 ± 4.2 | Phagocytic number (alveolar macrophages) [1, 8]: 3.74 ± 0.25 | BAFL cytogram, Lymphocytes [1, 9]: 0.56 ± 0.17 ×10^6 cells/lungs | BAFL cytogram, Macrophages [1, 9]: 14.6 ± 2.1 ×10^6 cells/lungs | BAFL cytogram, Neutrophiles [1, 9]: 0.25 ± 0.11 ×10^6 cells/lungs | Phagocytic index (alveolar macrophages) [1, 9]: 49.3 ± 3.6 | Phagocytic number (alveolar macrophages) [1, 9]: 3.68 ± 0.31 | basal and zymosan-stimulated production of SA (superoxid-anion) by AM [1, 10]: reliably increases | normalization of free radical production of BALF cells [1, 10]: more rapid normalization | processes of lung tissue reparation ([1]; in words, dose of 0,2 μg/kg of body weight): speeding-up | number of lymphocytes in BAFL ([2]; 30th day): 1,75±0,45 ×10^6 cells/lungs | AM phagocytic activity, phagocytic index ([2]; 45th day): 75,6±4,5 | AM phagocytic activity, phagocytic index ([2]; 60th day): 78,6±3,2 | number of lymphocytes in BAFL ([2]; 60th day): 1,11±0,15 ×10^6 cells/lungs | Body weight ([2]; day 15): 151.6 ± 5.6 g | Relative lungs weight ([2]; day 15): 11.3 ± 0.6 mg/g of body weight | Ventricular index, right ven./left ven. × 100% ([2]; day 15): 34.2 ± 1.8+ % | BAFL large CIC ([2]; day 15): 42.6 ± 13.1 units | BAFL medium CIC ([2]; day 15): 37.6 ± 7.6 units | Blood large CIC ([2]; day 15): 47.2 ± 12.3 units | Blood medium CIC ([2]; day 15): 113.4 ± 11.6+ units | Body weight ([2]; day 30): 176.8 ± 5.8 g | Relative lungs weight ([2]; day 30): 12.8 ± 0.4 mg/g of body weight | Ventricular index, right ven./left ven. × 100% ([2]; day 30): 37.2 ± 1.5*+ % | BAFL large CIC ([2]; day 30): 52.3 ± 8.3*+ units | BAFL medium CIC ([2]; day 30): 72.3 ± 8.1*+ units | Blood large CIC ([2]; day 30): 85.9 ± 12.3*+ units | Blood medium CIC ([2]; day 30): 187.6 ± 20.4*+ units | Body weight ([2]; day 45): 195.3 ± 6.5+ g | Relative lungs weight ([2]; day 45): 11.5 ± 0.3*+ mg/g of body weight | Ventricular index, right ven./left ven. × 100% ([2]; day 45): 42.3 ± 2.1*+ % | BAFL large CIC ([2]; day 45): 76.3 ± 8.3*+ units | BAFL medium CIC ([2]; day 45): 79.4 ± 5.4*+ units | Blood large CIC ([2]; day 45): 135.2 ± 12.3*+ units | Blood medium CIC ([2]; day 45): 208.7 ± 12.5*+ units | Body weight ([2]; day 60): 234 ± 9.3+ g | Relative lungs weight ([2]; day 60): 13.4 ± 0.5*+ mg/g of body weight | Ventricular index, right ven./left ven. × 100% ([2]; day 60): 46.6 ± 1.4*+ % | Ventricular index, right ven./left ven. × 100% ([2]; day 60, listed as tetrapeptide): 46,6±1,4% | BAFL large CIC ([2]; day 60): 53.2 ± 9.4+ units | BAFL medium CIC ([2]; day 60): 41.8 ± 6.7+ units | Blood large CIC ([2]; day 60): 81.3 ± 11.3*+ units | Blood medium CIC ([2]; day 60): 159.4 ± 12.8+ units | basal superoxid-anion production in response to respiratory explosion stimulators ([2]; in words): decrease | lung morphologic changes as compared to control animals ([2]; in words, after the 3rd bleomycine installation): reliably less pronounced | Body weight ([3]; 0,2 μg/kg intraperitoneally, 10 injections, day not given): 228 ± 6+ g | Phagocytic activity of AM, Phagocytic index ([3]; day 10): 50.8 ± 2.3+ | Phagocytic activity of AM, Phagocytic number ([3]; day 10): 5.78 ± 0.42*+ | Phagocytic activity of AM, Phagocytic index ([3]; day 10, listed as tetrapeptide): 50,8±2,3 | Phagocytic activity of AM, Phagocytic index ([3]; day 20): 45.8 ± 2.6*+ | Phagocytic activity of AM, Phagocytic number ([3]; day 20): 3.35 ± 0.35+ | Phagocytic activity of AM, Phagocytic index ([3]; day 20, listed as tetrapeptide): 45,5±2,6 | Phagocytic activity of AM, Phagocytic index ([3]; day 30): 42.7 ± 2.5 | Phagocytic activity of AM, Phagocytic number ([3]; day 30): 2.83 ± 0.36 | Phagocytic activity of AM, Phagocytic index ([3]; day 40): 40.3 ± 2.3 | Phagocytic activity of AM, Phagocytic number ([3]; day 40): 3.45 ± 0.23 | Phagocytic activity of AM, Phagocytic index ([3]; day 50): 38.5 ± 2.3 | Phagocytic activity of AM, Phagocytic number ([3]; day 50): 3.21 ± 0.24 | pathomorphological changes manifestation (interstitial fibrosis, atelectasis foci, cellular infiltration) ([3]; in words): decrease | SI, % compared to the control ([4]; 0.01 ng/ml): 2% | SI, % compared to the control ([4]; 0.1 ng/ml): 14% | SI, % compared to the control ([4]; 0.5 ng/ml): 9% | SI, % compared to the control ([4]; 1.0 ng/ml): 22* % | SI, % compared to the control ([4]; 2.0 ng/ml): 53* % | SI, % compared to the control ([4]; 10.0 ng/ml): 25* % | SI, % compared to the control ([4]; 20.0 ng/ml): 9% | growth of organotypic lung culture explants ([4]; in words, concentrations from 1,0 to 10,0 ng/ml): reliably stimulates | acute toxicity, toxic reactions (white mongrel male mice): does not cause any toxic reactions | subacute toxicity, side-effects (white mongrel male rats): does not reveal any side-effects | chronic toxicity, side-effects (male guinea-pigs): does not reveal any side-effects | effect on SES, erythrocytes resistance and biochemical indices of blood serum (male guinea-pigs): weren't revealed a reliable effect | number of leucocytes (blood morphological content) (male guinea-pigs): increase
